Read-outs that look alike come from different tables or passages of the source.
How the values were obtained:
[1] = tested on: Female mice; assay: In vivo hot plate method analgesia test; conditions: intraperitoneal; for Maximum percentage effective analgesic (% MPE): Table 1-2, hot plate 55° C.; for Maximum percentage effective analgesic (% MPE) / % MPE (5 mg/kg): 5 mg/kg dose; for % MPE: Table 4-2, hot plate 55° C.; for % MPE / Maximum percentage effective analgesia (% MPE): 10 mg/kg dose; for % MPE (5 mg/kg): Table 2-2, hot plate 55° C.; for Maximum percentage effective analgesia (% MPE): Table 5-2, hot plate 55° C.; for ED50: Mus musculus, ip, Table 4-2, hot plate
Method: Female mice weighing about 20 g were placed on a hot plate apparatus preheated to 55° C., and the latency of the hindfoot response of the mice was used as the pain threshold indicator. Animals were screened before the experiment, and those with response latency less than 5 s or more than 30 s were excluded. To prevent foot scalding, the maximum observation time was set at 60 s. The basal pain threshold was the average of two measurements, with a 5-min interval between measurements. pain thresholds were measured at 15 m, 30 m, 60 m and 120 m after intraperitoneal injection in each group of mice. The percentage effective analgesia (% MPE) was calculated according to the following formula: percentage effective analgesia (% MPE) (post-dose latency−pre-dose latency)/(60−pre-dose latency)×100%. ED50 values were calculated based on the effective percentage of analgesia using the software Graphpad prism 5.0 software.
(§1) Female mice weighing about 20 g were placed on a hot plate apparatus preheated to 55° C., and the latency of the hindfoot response of the mice was used as the pain threshold indicator. Animals were selected before the experiment, and those with response latency less than 5 s or greater than 30 s were excluded. To prevent foot scalding, the maximum observation time was set at 60 s. The basal pain threshold was the average of two measurements, with a 5-min interval between measurements. pain thresholds were measured at 15 min, 30 min, 60 min and 120 min after intraperitoneal administration in each group of mice. The percentage of analgesic effectiveness (% MPE) was calculated according to the following equation. Percentage of effective analgesia (% MPE)_(Pre-dose incubation period−Incubation period after drug administration)/(60-Pre-dose incubation period)×100%. ED50 values were calculated based on the effective percentage of analgesia using GraphPad prism 5.0 software.
as §1, with “were screened” for “were selected”, “measurements. Pain” for “measurements. pain”, “following formula.” for “following equation. Percentage of effective analgesia (% MPE)_(Pre-dose incubation period−Incubation period after drug administration)/(60-Pre-dose incubation period)×100%. ED50 values were calculated based on the effective percentage of analgesia using GraphPad prism 5.0 software.”
ED50 values were calculated based on the effective percentage of analgesia using Graphpad Prism 5.0.
Female mice weighing about 20 g were placed on a hot plate apparatus preheated to 55° C., and the latency of the hindfoot response of the mice was used as the pain threshold indicator. Animals were screened before the experiment, and those with response latency less than 5 s or more than 30 s were excluded. To prevent foot scalding, the maximum observation time was set at 60 s. The basal pain threshold was the average of two measurements, with a 5-min interval between measurements. pain thresholds were measured at 15 min, 30 min, 60 min and 120 min after intraperitoneal administration in each group of mice. The analgesic effective percentage (% MPE) was calculated according to the following formula: analgesic effective percentage (% MPE)=(latency after drug administration−latency before drug administration)/(60−latency before drug administration)×100%. ED50 values were calculated based on the effective percentage of analgesia using the software Graphpad prism 5.0.
Female mice weighing about 20 g were placed on a hot plate apparatus preheated to 55° C. and the latency of the hindfoot response was used as an indicator of pain threshold. […]

[2] = molecular target: T1, δ opioid receptor (Homo sapiens, UniProt P41143); assay: Competition binding assay on membranes of CHO cells expressing δ opioid receptor, [3H]-labeled ligand; conditions: read-out: δOR Ki
T1 construct: expressed in transfected cells; host or cells: CHO cells (membranes)
Method: (§2) CHO cells expressing p opioid receptor, δ opioid receptor and κ opioid receptor were cultured in 10 cm^2 culture dishes (F-12 medium+10% neonatal bovine serum) for several days, and the culture fluid was aspirated after the cells had grown to the bottom of the dishes; 3 ml of PBS/EDTA solution (0.1M NaCl, 0.01M NaH2PO4, 0.04% EDTA) was added to digest the cells for 3-5 min. Add ice-cold homogenate (50 mM HEPES PH 7.4, 3 mM MgCl, 1 mM EGTA) to the centrifuge tube, transfer the solution and sediment to a homogenizer and homogenize; then transfer the homogenate to a centrifuge tube and centrifuge at 18000 rpm. Centrifuge for 15 min, two times; the obtained precipitate was homogenized with appropriate amount of 50 mM Tris-HCl, pH 7.4 buffer and divided into centrifuge tubes and stored at −70° C. in the refrigerator until use.
(§3) The total binding tube was spiked with 20-30 μg of the expressed membrane receptor protein and […] ligand (1-2 nM), the corresponding non-specific binding tube was spiked with 1 μM of the corresponding ligand, and the sample tubes were spiked with various screened opioid ligands in a final volume of […], incubated at 30° C. for 30 min, and the reaction was terminated in ice water. […] The samples were filtered under negative pressure through GF/C (whatman) glass fiber filter paper on a Millipore sample collector. The reaction was rinsed three times with 4 ml of 50 mMV Tris-HCl (pH 7.4), the filter paper was dried and placed in 0.5 ml Eppendorf tubes with 0.5 ml of lipophilic scintillation solution, the radioactivity was measured by PERKIN ELMER PRI-CARB 2910 liquid scintillation counter and the inhibition rate was calculated. Inhibition rate (or binding rate)=(total binding rate dpm−sample tube dpm)/(total binding tube dpm−non-specific binding tube dpm)×100%
(§4) IC50 was calculated using Prism 5.0 software. the Ki value was calculated as follows, Ki=IC50/(1+[IL]/Kd), [lL] is the concentration of the added labeled ligand and Kd is the equilibrium dissociation parameter of the labeled ligand.
(§5) CHO cells expressing p opioid receptor, δ opioid receptor and κ opioid receptor were cultured in a 10 cm^2 culture dish (F-12 medium+10% neonatal bovine serum) for several days, and the culture fluid was aspirated after the cells grew to the bottom of the dish. 3 mL PBS/EDTA solution (0.1 M NaCl, 0.01 M NaH2PO4, 0.04% EDTA) was added to digest the cells for 3˜5 min, blew with a pipette to completely dislodge the cells. The cells were collected in a 40 mL centrifuge tube, centrifuged at 5000 rpm for 5 min. The supernatant was removed and the ice-cold homogenate (50 mM HEPES pH 7.4, 3 mM MgCl2, 1 mM EGTA) was added to the centrifuge tube. The solution and the precipitate were transferred to a homogenizer. Then the homogenate was transferred to a centrifuge tube and centrifuged at 18000 rpm for 15 min. The precipitate was centrifuged twice at 18000 rpm for 15 min. The obtained precipitate was homogenized by adding appropriate amount of 50 mM Tris-HCl, pH 7.4 buffer and divided into centrifuge tubes and stored at −70° C. in the refrigerator until use.
(§6) The total binding tube was added with 20-30 μg of expressed membrane receptor protein and [3H]-labeled ligand (1-2 nM). The corresponding non-specific binding tube was added with 1 μM of the corresponding ligand, and the sample tubes were added with various screened opioid ligands in a final volume of 100 μL. All of them were incubated for 30 min at 30° C., and the reaction was terminated in ice water. The samples were filtered under negative pressure through GF/C (Whatman) glass fiber filter paper on a Millipore sample collector. The reaction was rinsed three times with 4 mL of 50 mM Tris-HCl (pH 7.4), the filter paper was dried and placed in 0.5 mL Eppendorf tubes with 0.5 mL of lipophilic scintillation solution. […]

[3] = molecular target: T2, κ opioid receptor (Homo sapiens, UniProt P41145); assay: Competition binding assay on membranes of CHO cells expressing κ opioid receptor, [3H]-labeled ligand; conditions: read-out: κOR Ki
T2 construct: expressed in transfected cells; host or cells: CHO cells (membranes)
Method: as §2, §3, §4, §5, §6

[4] = molecular target: T3, μ opioid receptor (Homo sapiens, UniProt P35372); assay: Competition binding assay on membranes of CHO cells expressing μ opioid receptor, [3H]-labeled ligand; conditions: read-out: μOR Ki
T3 construct: expressed in transfected cells; host or cells: CHO cells (membranes)
Method: as §2, §3, §4, §5, §6

COc1cccc(C2(O)CCC(S(=O)(=O)Cc3ccccc3)CC2CN(C)C)c1.Cl (stereo not drawn) [4-(Benzylsulfonyl)-2-((dimethylamino)methyl)-1-(3-methoxyphenyl)cyclohexane-1-ol hydrochloride]
Maximum percentage effective analgesic (% MPE) [1]: 21.7%

CN(C)C[C@@H]1CN(C(=O)Cc2cc(F)c(F)cc2F)CC[C@@]1(O)c1cccc(O)c1
Ki ([2]; Table 4-1): 0.178 ± 0.0179 µM | Ki ([3]; Table 4-1): 0.127 ± 0.0016 µM | Ki ([4]; Table 4-1): 0.00177 ± 0.00018 µM

CN(C)C[C@@H]1CN(C(=O)Cc2cc(F)c(F)cc2F)CC[C@@]1(O)c1cccc(O)c1.Cl
% MPE [1]: 29.7%

CN(C)CC1CN(S(=O)(=O)Cc2ccccc2)CCC1(O)c1cccc(OC(F)(F)F)c1.Cl (stereo not drawn)
% MPE (5 mg/kg) [1]: 20.2%

COc1cccc(C2(OC(F)F)CCN(S(=O)(=O)Cc3ccccc3)CC2CN(C)C)c1.Cl (stereo not drawn)
% MPE (5 mg/kg) [1]: 8.38%

COc1cccc(C2(OC(=O)c3ccccc3)CCC(NS(=O)(=O)c3cccc(Cl)c3)CC2CN(C)C)c1.Cl (stereo not drawn) [4-((3-Chlorophenyl)sulfonylamino)-2-((dimethylamino)methyl)-1-(3-methoxyphenyl)cyclohexyl benzoate hydrochloride]
Maximum percentage effective analgesic (% MPE) [1]: 11.6%

COc1cccc(C2(O)CCN(C(=O)Cc3c[nH]c4ccccc34)CC2CN(C)C)c1 (stereo not drawn) [FWBE13, 1-(3-((Dimethylamino)methyl)-4-hydroxy-4-(3-methoxyphenyl)piperidin-1-yl)-2-(1H-indol-3-yl)ethyl-1-one]
Ki ([3]; Table 5-1): 3.1 ± 0.0795 µM | Ki ([4]; Table 5-1): 0.115 ± 0.0041 µM | Maximum percentage effective analgesia (% MPE) [1]: 66.95%

COc1cccc(C2(O)CCN(C(=O)Cc3cccc(Br)c3)CC2CN(C)C)c1.Cl (stereo not drawn) [FWBE11, 2-(3-Bromophenyl)-1-(3-((dimethylamino)methyl)-4-hydroxy-4-(3-methoxyphenyl)piperidin-1-yl)ethyl-1-one hydrochloride]
Ki ([2]; Table 5-1): > 10 µM | Ki ([4]; Table 5-1): 0.0576 ± 0.0001 µM | Maximum percentage effective analgesia (% MPE) [1]: 98.31%

COc1cccc(C2(OC(=O)c3ccccc3)CCC(N(C)S(=O)(=O)Cc3cccc(Cl)c3)CC2CN(C)C)c1.Cl (stereo not drawn)
Maximum percentage effective analgesic (% MPE) [1]: 0%

COc1cccc([C@@]2(O)CCN(C(=O)Cc3cc(F)c(F)cc3F)C[C@@H]2CN(C)C)c1.Cl
% MPE [1]: 10.5%

COc1cccc(C2(O)CCN(C(=O)CCc3cccc(C(F)(F)F)c3)CC2CN(C)C)c1.Cl (stereo not drawn) [FWBE10, 1-(3-((Dimethylamino)methyl)-4-hydroxy-4-(3-methoxyphenyl)piperidin-1-yl)-3-(3-(trifluoromethyl)phenyl)propyl-1-one hydrochloride]
Ki ([2]; Table 5-1): > 10 µM | Ki ([4]; Table 5-1): 0.219 ± 0.0098 µM | Maximum percentage effective analgesia (% MPE) [1]: 17.33%

COc1cccc(C2(O)CCC(NS(=O)(=O)Cc3cccc(Cl)c3)CC2CN(C)C)c1.Cl (stereo not drawn) [1-(3-Chlorophenyl)-N-(3-((dimethylamino)methyl)-4-hydroxy-4-(3-methoxyphenyl)cyclohexyl)methanesulfonamide hydrochloride]
Maximum percentage effective analgesic (% MPE) [1]: 15.2%

COc1cccc(C2(OC(=O)c3ccccc3)CCC(N(C)S(=O)(=O)Cc3ccccc3)CC2CN(C)C)c1.Cl (stereo not drawn)
Maximum percentage effective analgesic (% MPE) [1]: 37.2%

COc1cccc([C@]2(O)CCN(C(=O)Cc3cc(F)c(F)cc3F)CC2CN(C)C)c1.Cl (stereo partly drawn)
ED50 [1]: 0.54 mg/kg

COc1cccc(C2(O)CCC(N(Cc3ccccc3)S(=O)(=O)c3ccccc3)CC2CN(C)C)c1.Cl (stereo not drawn) [N-Benzyl-N-(3-((dimethylamino)methyl)-4-hydroxy-4-(3-methoxyphenyl)cyclohexyl)benzenesulfonamide hydrochloride]
Maximum percentage effective analgesic (% MPE) [1]: 0%

COc1cccc(C2(O)CCC(N(Cc3ccccc3)S(=O)(=O)c3cccc(Cl)c3)CC2CN(C)C)c1.Cl (stereo not drawn) [N-Benzyl-3-chloro-N-(3-((dimethylamino)methyl)-4-hydroxy-4-(3-methoxyphenyl)cyclohexyl)benzenesulfonamide hydrochloride]
Maximum percentage effective analgesic (% MPE) [1]: 6%

COc1cccc([C@]2(O)CCN(S(=O)(=O)Cc3ccccc3)C[C@H]2CN(C)C)c1.Cl [(3R,4S)-1-(Benzylsulfonyl)-3-((dimethylamino)methyl)-4-(3-methoxyphenyl)piperidin-4-ol hydrochloride]
ED50 [1]: 0.49 mg/kg

COc1cccc(C2(O)CCC(NS(=O)(=O)c3ccccc3)CC2CN(C)C)c1.Cl (stereo not drawn) [N-(3-((Dimethylamino)methyl)-4-hydroxy-4-(3-methoxyphenyl)cyclohexyl)benzenesulfonamide hydrochloride]
Maximum percentage effective analgesic (% MPE) [1]: 10.3%

COc1cccc(C2(O)CCC(NS(=O)(=O)c3cccc(Cl)c3)CC2CN(C)C)c1.Cl (stereo not drawn) [3-Chloro-N-(3-((dimethylamino)methyl)-4-hydroxy-4-(3-methoxyphenyl)cyclohexyl)benzenesulfonamide hydrochloride]
Maximum percentage effective analgesic (% MPE) [1]: 11.7%
